Reference: patent EP4005570B1, “P[…] USE IN TREATING RETT SYNDROME” (Prilenia Neurotherapeutics Ltd., priority 2016, dated 2018)
“And” between values parts separate entries of the source, which are not always exact repeats. Identical values can stand only once. Like-named read-outs stand apart in the source and are kept apart here.

Assays:
[1] = test system: female MeCP2 (BIRD) mouse model of RTT; details: for startle response: vs vehicle-treated HET mice
Excerpt: (§1) Dosing commenced when mice were ~5.5 weeks of age and continued through the end of behavioral testing. Behavioral testing was done at 8 and 12 weeks of age.
(§2) Female MeCP2 ([…], HET) mice and wild type (MeCP2_WT, WT) littermates were received in two cohorts at ~4.5 weeks of age from Jackson Laboratories. They were assigned unique identification numbers and group-housed in opti-MICE cages (Animal Care Systems, CO). All animals were examined and weighed prior to initiation and throughout the study to assure adequate health and suitability and to minimize nonspecific stress associated with manipulation. During the course of the study, 12/12 light/dark cycle was maintained. The room temperature was maintained between 20 and 23°C with a relative humidity maintained around 50%. Chow and water was provided ad libitum for the duration of the study. The tests were performed during the animal's light cycle phase.
Mice were placed in the PPI chambers (Med Associates) for a 5 min session of white noise (70 dB) habituation.
The inter-trial interval was variable with an average of 15 s (range from 10 to 20 s).
(§3) Data from standard tests were analyzed by genotype (t-test) and by treatment (ANOVA) followed by post-hoc comparisons where appropriate. For some measures (i.e. body weights and PPI), repeated-measures ANOVAs were performed. For clasping data, N-1 two-proportional tests were performed. An effect was considered significant if p < 0.05. All data are represented as the mean and standard error to the mean (s.e.m). Values ± 2 standard deviations from the mean were considered outliers.

[2] = test system: patient afflicted with RTT; details: periodic administration (daily or twice daily), intravenously or orally
[3] = test system: BDNF; details: whole brain; 3 and 30 mg/kg BID; vs MeCP2_HET vehicle
Method: Mice were euthanized via cervical dislocation and decapitated. From 10 mice/treatment group, whole brains were collected, weighed, and then frozen on dry ice. Samples were stored at - 80°C until analysis of brain-derived neurotrophic factor (BDNF).
Once tissues were disrupted, samples were allowed to incubate at room temperate for 5 minutes.
Briefly, 150µL of Chloroform (Cat # C2432, Sigma-Aldrich, St. Louis, MO) was added and samples were shaken vigorously for 15 seconds followed by 3-minute incubation at room temperature. The aqueous phase was separated from the organic phase by centrifugation at 6,000 x g (Beckman Coulter Avanti J-30I), 4°C for 15 minutes. The aqueous phase was then transferred to a new 96-well block and total RNA was precipitated with equal volume of 70% ethanol. Content was transferred to an RNeasy 96-well plate, followed by centrifuge at 6,000-x g (Beckman Coulter Avanti J-30I), at room temperate for 4 minutes. […] RNA was eluted with RNase-Free water.
Samples were quantified using NanoDrop 8000 (Thermo Scientific). […]
Relative quantity of the PCR product (relative to the calibrator) was calculated as follows: [formula] […]
Geometric mean for the three housekeeping genes was calculated as follows: [formula]
Relative level of target gene was calculated as follows: Relative Quantity of Target gene÷Geometric mean of housekeeping genes [formula] […]

[4] = test system: female MeCP2 (BIRD) mouse model of RTT
Excerpt: as §1, §2, §3

[5] = test system: neuroblastoma cell line; details: S1R-dependent manner (Geva 2016); cited from earlier work
[6] = test system: female MeCP2 (BIRD) mouse model of RTT; details: for Recovery (%) Gait / Recovery (%) Paw Features / Recovery (%) Paw Positioning / Recovery (%) Body Motion / Recovery (%) Rhythmicity: HET mice
Excerpt: as §1, §2
Mice were placed in the NeuroCube for a 5 min test. The most dominant of the features collected that define the disease phenotype (symptom descriptors) was identified and ranked. Complex bioinformatic algorithms were employed to calculate the discrimination probability between the WT and the BIRD mice and detect a test compound's ability to reverse the disease phenotype. Discriminations between mutant and wild type was calculated as well as the recovery of disease features in HET mice treated with the test compound.
The output of NeuroCube is a set of dozens of behavioral features that are submitted for analysis with machine learning techniques used in bioinformatics. Many of these features are correlated (e.g. rearing counts and supported rearing counts). Therefore, PGI forms statistically independent combinations of the original features (further referred to as de-correlated features) that discriminate between the two groups more effectively.
Each de-correlated feature extracts information from the whole cluster of the original features, so the new feature space has lower dimensionality. Next, PGI applies a proprietary feature ranking algorithm to score each feature's discrimination power (ability to separate the two groups, e.g. control and disease).
Ranking is an important part of the analyses because it weighs each feature change by its relevance: if there is a significant change in some irrelevant feature measured for a particular phenotype, the low rank of this feature will automatically reduce the effect of such change in the analyses, so there is no need to resort to the conventional "feature selection" approach and discard information buried in the less informative features. Ranking algorithm can be applied to either original or the new features to gain insight about the key control-disease differences (see Figure 1).
In the new feature space, the overlap between the "clouds" (Gaussian distributions approximating the groups of mice in the ranked de-correlated features space) serves as a quantitative measure of separability ("distinguishability") between the two groups (see Figure 2). For visualization purposes, each cloud was plotted with its semi-axes equal to the one standard deviation along the corresponding dimensions.

[7] = 12 weeks, 30 mg/kg BID, 30 mg/kg
[8] = 12 weeks, 30 mg/kg BID, listed as pridopidine, 30 mg/kg

CCCN1CCC(c2cccc(S(C)(=O)=O)c2)CC1 [Pridopidine, 4-[3-(methylsulfonyl)phenyl]-1-propyl-piperidine]
startle response ([1]; 3 mg/kg BID, both ages (8 and 12 weeks)): increased startle response | startle response ([1]; 30 mg/kg BID): did not have a significant effect | prepulse inhibition response ([1]; 3 and 30 mg/kg BID, HET mice): No genotype or treatment effects were observed | treatment of the patient afflicted with RTT [2]: effective to treat the patient | BDNF I mRNA expression [3]: None of the treatments had a significant effect | BDNF VI mRNA expression [3]: None of the treatments had a significant effect | hindlimb clasping ([4]; 3 mg/kg BID, 8 and 12 weeks, vs HET-vehicle): did not have a significant effect | hindlimb clasping ([4]; 30 mg/kg BID, 12 weeks): this effect was not seen | secretion of the neuroprotective brain-derived neurotrophic factor (BDNF) [5]: enhances secretion | gait measures ([6]; 3 mg/kg BID, compared with vehicle-treated mutants, age not stated): differed significantly | recovery of overall gait features ([6]; 3 mg/kg, 8 weeks of age, Figure 8A): no recovery | recovery of overall gait features ([6]; 3 mg/kg, 12 weeks of age, Figure 9A): no recovery | recovery of overall gait features ([6]; 30 mg/kg, 8 weeks of age, Figure 8B): 45% and 55% | recovery of overall gait features ([6]; 30 mg/kg, 8 weeks of age, Figure 8B, listed as pridopidine): significant recovery | recovery of overall gait features ([6]; 30 mg/kg, 12 weeks of age, Figure 9B): 55% | Recovery (%) Gait ([6]; 8 weeks, 3 mg/kg BID): 38% | Recovery (%) Paw Features ([6]; 8 weeks, 3 mg/kg BID): 0% | Recovery (%) Paw Positioning ([6]; 8 weeks, 3 mg/kg BID): 8% | Recovery (%) Body Motion ([6]; 8 weeks, 3 mg/kg BID, 3 mg/kg): 82% | Recovery (%) Body Motion ([6]; 8 weeks, 3 mg/kg BID, listed as pridopidine, 3 mg/kg): showed efficacy | Recovery (%) Gait ([6]; 8 weeks, 30 mg/kg BID): 71% | Recovery (%) Paw Features ([6]; 8 weeks, 30 mg/kg BID): 63% | Recovery (%) Paw Positioning ([6]; 8 weeks, 30 mg/kg BID): 35% | Recovery (%) Body Motion ([6]; 8 weeks, 30 mg/kg BID, 30 mg/kg): 84% | Recovery (%) Body Motion ([6]; 8 weeks, 30 mg/kg BID, listed as pridopidine, 30 mg/kg): showed efficacy | Recovery (%) Gait ([6]; 12 weeks, 3 mg/kg BID): 60% | Recovery (%) Paw Features ([6]; 12 weeks, 3 mg/kg BID): 0% | Recovery (%) Paw Positioning ([6]; 12 weeks, 3 mg/kg BID): 35% | Recovery (%) Rhythmicity ([6]; 12 weeks, 3 mg/kg BID): 41% | Recovery (%) Body Motion ([6]; 12 weeks, 3 mg/kg BID, 3 mg/kg): 65% | Recovery (%) Body Motion ([6]; 12 weeks, 3 mg/kg BID, listed as pridopidine, 3 mg/kg): showed efficacy | Recovery (%) Paw Features ([6]; 12 weeks, 30 mg/kg BID): 69% | Recovery (%) Paw Positioning ([6]; 12 weeks, 30 mg/kg BID): 52% | Recovery (%) Rhythmicity ([6]; 12 weeks, 30 mg/kg BID): 10% | Recovery (%) Body Motion [6, 7]: 59% | Recovery (%) Gait [6, 7]: 100% | Recovery (%) Body Motion [6, 8]: showed efficacy | Recovery (%) Gait [6, 8]: Significant effects
